The results in this text go back to article PMC10620963, “Two-carbon tethered artemisinin–isatin hybrids: design, synthesis, anti-breast cancer potential, and in silico study” (Frontiers in Molecular Biosciences, 2023).

SMILES strings stand for the structures.

Data set [1] has as its system MDA-MB-231/ADR (Adriamycin-resistant MDA-MB-231 cell line). As to the kind of experiment: MTT antiproliferative assay, MDA-MB-231/ADR. It counts as cell-based. As to conditions: Homo sapiens, 24 h treatment, mean ± S.D., n = 3. On the procedure:
(§1) The antiproliferative activity and cytotoxicity of ART–isatin hybrids 4a–k against MCF-7 (CL-0149, purchased from Procell), MDA-MB-231 (CL-0150A, purchased from Procell), and MDA-MB-231/ADR (AC337895, purchased from CASMART) breast cancer cell lines, as well as MCF-10A (CL-0525, purchased from Procell), were assessed by the 3-(4,5-dimethylthiazol-2-yl)-2,5-diphenyltetrazolium bromide (MTT) assay. ART, DHA, and Adriamycin (ADR) were used as positive controls. The selectivity index (SI: IC50(MCF-10A)/IC50(MCF-7)) and resistance index (RI: IC50(MDA-MB-231/ADR)/IC50(MDA-MB-231)) are presented in Table 3.
(§2) MCF-7, MDA-MB-231 and MDA-MB-231/ADR breast cancer cells (2×10^3) were plated in each well of a 96-well plate and were allowed to adhere and spread for 24 h. Cells were treated with a range of different concentrations of ART-isatin hybrids 4a-k (1, 5, 10, 20, 50, 100 µM) and reference drugs artemisinin, dihydroartemisinin, and adriamycin (1, 5, 10, 20, 50, 100 µM) and were cultured for 24 h at 37 °C. 3-(4,5-dimethyl-2-thiazolyl)-2,5-diphenyltetrazolium bromide (MTT) solution (10 µL) was added to each well, and the cultures were incubated for an additional 4 h. A further 100 µL of […] was added and incubation continued overnight. The absorbance was read at 540 nm in EnSpire, multimode reader and IC50 concentration was calculated and indicated as means SD of three in-dependent experiments. The percentage relative cell viability was determined according to the following formula: Percentage cell viability = A at 570 nm of treated samples/A at 570 nm of untreated samples × 100.
(§3) The statistical analysis was performed using Excel © and IC50 values were estimated using GraphpadPrism5 software (Hearne Scientific Software). The experiments were performed in duplicate and the statistical significance was calculated using the student’s t-test. A p-value of less than 0.05 was used to estimate the significance of the observations. A Z-factor was calculated for each 96-well plate and assays having Z-factor above 0.05 were included in the statistical analysis.

A short description of data set [2]: MTT cytotoxicity assay, MCF-10A. As to conditions: human, MCF-10A normal breast cells, 72 h exposure. It counts as cell-based. On the procedure: as §1
The cytotoxicity (CC50) of ART-isatin hybrids 4a-k and reference drugs artemisinin, dihydroartemisinin, and adriamycin were examined by the MTT assay in MCF-10A cells. The compounds were dissolved in DMSO with different concentrations. The MCF-10A cells were maintained in culture medium at 37 °C under 5% CO2 atmosphere. Cells were seeded in 96-well plates (1×10^4 cell per well) and allowed to recover for 24 h. After 72 h of exposure, cells were harvested, and cell viability was assessed by MTT assay.
as §3
(In general: Tetrazolium dyes change colour on reduction, which living cells bring about.)

In data set [3] the test system is MDA-MB-231 breast cancer cell line. The data set is described as follows: MTT antiproliferative assay, MDA-MB-231. Format: cell-based. Conditions: Homo sapiens, 24 h treatment, mean ± S.D., n = 3. As to the method:
as §1, §2, §3

Data set [4] relates to MCF-7 breast cancer cell line. As to the kind of experiment: MTT antiproliferative assay, MCF-7. Format: cell-based, human. Conditions: for IC50: Homo sapiens, MCF7, MTT, 24 h treatment, mean ± S.D., n = 3. As to the method:
as §1, §2, §3

Data set [5] relates to MCF-7, MDA-MB-231, and MDA-MB-231/ADR breast cancer cell lines. As to the kind of experiment: MTT antiproliferative assay, span over the three breast cancer cell lines. Format: cell-based. As to conditions: Homo sapiens; span over MCF-7, MDA-MB-231, MDA-MB-231/ADR; read-out: IC50 range against the three tested breast cancer cell lines. As to the method:
as §1
MCF-7, MDA-MB-231 and MDA-MB-231/ADR breast cancer cells (2×10^3) were plated in each well of a 96-well plate and were allowed to adhere and spread for 24 h. […] The absorbance was read at 540 nm in EnSpire, multimode reader and IC50 concentration was calculated and indicated as means SD of three in-dependent experiments. The percentage relative cell viability was determined according to the following formula: Percentage cell viability = A at 570 nm of treated samples/A at 570 nm of untreated samples × 100.
The statistical analysis was performed using Excel © and IC50 values were estimated using GraphpadPrism5 software (Hearne Scientific Software). The experiments were performed in duplicate and the statistical significance was calculated using the student’s t-test. […]

Usually IC50 stands for the point on the concentration scale where inhibition reaches its midpoint. Take `COc1cccc2c1C(=O)c1c(O)c3c(c(O)c1C2=O)C[C@@](O)(C(=O)CO)C[C@@H]3O[C@H]1C[C@H](N)[C@H](O)[C@H](C)O1` [ADR, Adriamycin, reference compound]: the IC50 was above 100 µM in data set [1], 4.46 ± 0.1 µM in data set [3] and 18.9 ± 1.2 µM in data set [4]. The IC50 at 72 h in data set [2] is 68.8 µM. Moreover, the “SI, selectivity index, IC50(MCF-10A)/IC50(MCF-7)” value (from here on “SI, selectivity index”) in data set [4] was 3.6.

For the compound `C[C@@H]1CC[C@H]2[C@@H](C)C(=O)O[C@@H]3O[C@@]4(C)CC[C@@H]1[C@]32OO4` [ART, artemisinin], the figures for the IC50 in data set [1], in data set [3] and in data set [4] were above 100 µM, 72.4 ± 5.3 µM and 87.6 ± 6.6 µM, respectively. In addition, the IC50 at 72 h in data set [2] is above 100 µM. In data set [4], the “SI, selectivity index” value was above 1.1.

As for `C[C@H]1[C@@H](O)O[C@@H]2O[C@@]3(C)CC[C@H]4[C@H](C)CC[C@@H]1[C@@]24OO3` [DHA, dihydroartemisinin, reference compound], the IC50 was 82.8 ± 6.8 µM in data set [1], 69.6 ± 4.7 µM in data set [3], 69.6 to 89.8 µM in data set [5] and 73.2 ± 5.9 µM in data set [4]. This compound showed an IC50 at 72 h in data set [2] above 100 µM. The “SI, selectivity index” value in data set [4] was above 1.3.

With `C[C@@H]1CC[C@H]2[C@@H](C)C(OCCN3C(=O)C(=O)c4ccccc43)O[C@@H]3O[C@@]4(C)CC[C@@H]1[C@]32OO4` (stereo partly drawn) [Hybrid 4a, 1-(2-(((3R,5aS,6R,8aS,9R,12R,12aR)-3,6,9-trimethyldecahydro-12H-3,12-epoxy[1,2]dioxepino[4,3-i]isochromen-10-yl)oxy)ethyl)indoline-2,3-dione], the IC50 in data set [1] is 2.49 ± 0.1 µM; in data set [3] it was 3.83 ± 0.1 µM; in data set [5], 2.49 to 12.6 µM; in data set [4], 12.6 ± 2.1 µM. The same compound had an IC50 at 72 h in data set [2] above 100 µM. Besides, the “SI, selectivity index” value in data set [4] is reported as above 7.9.

For `C[C@@H]1CC[C@H]2[C@@H](C)C(OCCN3C(=O)C(=O)c4cc(F)ccc43)O[C@@H]3O[C@@]4(C)CC[C@@H]1[C@]32OO4` (stereo partly drawn) [Hybrid 4b, 5-fluoro-1-(2-(((3R,5aS,6R,8aS,9R,12R,12aR)-3,6,9-trimethyldecahydro-12H-3,12-epoxy[1,2]dioxepino[4,3-i]isochromen-10-yl)oxy)ethyl)indoline-2,3-dione], the IC50 in data set [1] is 21.4 ± 3.1 µM; in data set [3] it was 18.6 ± 1.5 µM; in data set [4], 26.7 ± 2.4 µM. Further, the IC50 at 72 h in data set [2] was above 100 µM. The “SI, selectivity index” value in data set [4] is above 3.7.

For the compound `COc1ccc2c(c1)C(=O)C(=O)N2CCOC1O[C@@H]2O[C@@]3(C)CC[C@H]4[C@H](C)CC[C@@H]([C@H]1C)[C@@]24OO3` (stereo partly drawn) [Hybrid 4c, 5-methoxy-1-(2-(((3R,5aS,6R,8aS,9R,12R,12aR)-3,6,9-trimethyldecahydro-12H-3,12-epoxy[1,2]dioxepino[4,3-i]isochromen-10-yl)oxy)ethyl)indoline-2,3-dione], the figures for the IC50 in data set [1], in data set [3] and in data set [4] were 25.1 ± 1.9 µM, 27 ± 2.2 µM and 33.8 ± 3.2 µM, respectively. Moreover, in data set [2], the IC50 at 72 h is above 100 µM. Also, the “SI, selectivity index” value in data set [4] is above 2.9.

For `CON=C1C(=O)N(CCOC2O[C@@H]3O[C@@]4(C)CC[C@H]5[C@H](C)CC[C@@H]([C@H]2C)[C@@]35OO4)c2ccccc21` (stereo partly drawn) [Hybrid 4d, 3-(methoxyimino)-1-(2-(((3R,5aS,6R,8aS,9R,12R,12aR)-3,6,9-trimethyldecahydro-12H-3,12-epoxy[1,2]dioxepino[4,3-i]isochromen-10-yl)oxy)ethyl)indolin-2-one], the IC50 in data set [1] is 19.7 ± 1.2 µM; in data set [3] it was 16.2 ± 1.8 µM; in data set [4], 28.5 ± 2.3 µM. This compound also displayed an IC50 at 72 h in data set [2] above 100 µM. The “SI, selectivity index” value in data set [4] is above 3.5.

On to `CO/N=C1/C(=O)N(CCOC2O[C@@H]3O[C@@]4(C)CC[C@H]5[C@H](C)CC[C@@H]([C@H]2C)[C@@]35OO4)c2ccc(F)cc21` (stereo partly drawn) [Hybrid 4e, (E)-5-fluoro-3-(methoxyimino)-1-(2-(((3R,5aS,6R,8aS,9R,12R,12aR)-3,6,9-trimethyldecahydro-12H-3,12-epoxy[1,2]dioxepino[4,3-i]isochromen-10-yl)oxy)ethyl)indolin-2-one], for which the results for the IC50 in data set [1], in data set [3] and in data set [4] were 64.7 ± 4.9 µM, 49.6 ± 3.8 µM and 73.3 ± 5.6 µM, respectively. The IC50 at 72 h in data set [2] was above 100 µM. Besides, the “SI, selectivity index” value in data set [4] is given as above 1.3.

For the compound `CON=C1C(=O)N(CCOC2O[C@@H]3O[C@@]4(C)CC[C@H]5[C@H](C)CC[C@@H]([C@H]2C)[C@@]35OO4)c2ccc(OC)cc21` (stereo partly drawn) [Hybrid 4f, 5-methoxy-3-(methoxyimino)-1-(2-(((3R,5aS,6R,8aS,9R,12R,12aR)-3,6,9-trimethyldecahydro-12H-3,12-epoxy[1,2]dioxepino[4,3-i]isochromen-10-yl)oxy)ethyl)indolin-2-one], the IC50 was 33.8 ± 3 µM in data set [1], 20.4 ± 1.7 µM in data set [3] and 37.9 ± 3.3 µM in data set [4]. The concentration for half-maximal inhibition (IC50) at 72 h in data set [2] is above 100 µM. In addition, the “SI, selectivity index” value in data set [4] is on record as above 2.6.

As to `CCON=C1C(=O)N(CCOC2O[C@@H]3O[C@@]4(C)CC[C@H]5[C@H](C)CC[C@@H]([C@H]2C)[C@@]35OO4)c2ccccc21` (stereo partly drawn) [Hybrid 4g, 3-(ethoxyimino)-1-(2-(((3R,5aS,6R,8aS,9R,12R,12aR)-3,6,9-trimethyldecahydro-12H-3,12-epoxy[1,2]dioxepino[4,3-i]isochromen-10-yl)oxy)ethyl)indolin-2-one], the results for the IC50 in data set [1], in data set [3] and in data set [4] were 28.4 ± 2.1 µM, 37.6 ± 2.4 µM and 48.2 ± 3.7 µM, respectively. The IC50 at 72 h in data set [2] was above 100 µM. Further, in data set [4], the “SI, selectivity index” value is recorded as above 2.0.

Turning to `CCON=C1C(=O)N(CCOC2O[C@@H]3O[C@@]4(C)CC[C@H]5[C@H](C)CC[C@@H]([C@H]2C)[C@@]35OO4)c2ccc(F)cc21` (stereo partly drawn) [Hybrid 4h, 3-(ethoxyimino)-5-fluoro-1-(2-(((3R,5aS,6R,8aS,9R,12R,12aR)-3,6,9-trimethyldecahydro-12H-3,12-epoxy[1,2]dioxepino[4,3-i]isochromen-10-yl)oxy)ethyl)indolin-2-one], the IC50 in data set [1] was determined as 59.9 ± 4.4 µM; in data set [3], 46.5 ± 3.9 µM; in data set [4], 68.3 ± 5.2 µM. Moreover, the IC50 at 72 h in data set [2] is above 100 µM. The “SI, selectivity index” value in data set [4] is given as above 1.4.

For the compound `CCON=C1C(=O)N(CCOC2O[C@@H]3O[C@@]4(C)CC[C@H]5[C@H](C)CC[C@@H]([C@H]2C)[C@@]35OO4)c2ccc(OC)cc21` (stereo partly drawn) [Hybrid 4i, 3-(ethoxyimino)-5-methoxy-1-(2-(((3R,5aS,6R,8aS,9R,12R,12aR)-3,6,9-trimethyldecahydro-12H-3,12-epoxy[1,2]dioxepino[4,3-i]isochromen-10-yl)oxy)ethyl)indolin-2-one], the figures for the IC50 in data set [1], in data set [3] and in data set [4] were 52.2 ± 3.6 µM, 50.1 ± 4.2 µM and 70.8 ± 5.9 µM, respectively. In data set [2], this compound displayed an IC50 at 72 h above 100 µM. In addition, in data set [4], the “SI, selectivity index” value is on record as above 1.4.

As for `C[C@@H]1CC[C@H]2[C@@H](C)C(OCCN3C(=O)C(=NOCc4ccccc4)c4cc(F)ccc43)O[C@@H]3O[C@@]4(C)CC[C@@H]1[C@]32OO4` (stereo partly drawn) [Hybrid 4j, 3-((benzyloxy)imino)-5-fluoro-1-(2-(((3R,5aS,6R,8aS,9R,12R,12aR)-3,6,9-trimethyldecahydro-12H-3,12-epoxy[1,2]dioxepino[4,3-i]isochromen-10-yl)oxy)ethyl)indolin-2-one], the IC50 in data set [1], in data set [3] and in data set [4] was above 100 µM each time. The IC50 at 72 h in data set [2] is above 100 µM.

For the compound `COc1ccc2c(c1)/C(=N\OCc1ccccc1)C(=O)N2CCOC1O[C@@H]2O[C@@]3(C)CC[C@H]4[C@H](C)CC[C@@H]([C@H]1C)[C@@]24OO3` (stereo partly drawn) [Hybrid 4k, (E)-3-((benzyloxy)imino)-5-methoxy-1-(2-(((3R,5aS,6R,8aS,9R,12R,12aR)-3,6,9-trimethyldecahydro-12H-3,12-epoxy[1,2]dioxepino[4,3-i]isochromen-10-yl)oxy)ethyl)indolin-2-one], the IC50 in data set [1], in data set [3] and in data set [4] was above 100 µM throughout. Moreover, the IC50 at 72 h in data set [2] was above 100 µM.
